Assay results reported in US12570655B2, “Cysteine covalent modifiers of AKT1 and uses thereof” (Terremoto Biosciences, Inc., priority 2023, dated 2026).
Where two headings read alike, the source gives them in different places.

Key:
Type in all cases: cell-based
AKT1 WT = target: T1, AKT1 WT (Homo sapiens, UniProt P31749); experiment: Live cell AKT1 WT target engagement by NanoBRET competitive probe displacement; conditions: HEK293 cells transfected with kinase-NanoLuciferase fusion, 2 h at 37° C.
T1 construct: expressed in transfected cells; host or cells: HEK293
T1 sequence (P31749 whole entry, the tested form may be a part): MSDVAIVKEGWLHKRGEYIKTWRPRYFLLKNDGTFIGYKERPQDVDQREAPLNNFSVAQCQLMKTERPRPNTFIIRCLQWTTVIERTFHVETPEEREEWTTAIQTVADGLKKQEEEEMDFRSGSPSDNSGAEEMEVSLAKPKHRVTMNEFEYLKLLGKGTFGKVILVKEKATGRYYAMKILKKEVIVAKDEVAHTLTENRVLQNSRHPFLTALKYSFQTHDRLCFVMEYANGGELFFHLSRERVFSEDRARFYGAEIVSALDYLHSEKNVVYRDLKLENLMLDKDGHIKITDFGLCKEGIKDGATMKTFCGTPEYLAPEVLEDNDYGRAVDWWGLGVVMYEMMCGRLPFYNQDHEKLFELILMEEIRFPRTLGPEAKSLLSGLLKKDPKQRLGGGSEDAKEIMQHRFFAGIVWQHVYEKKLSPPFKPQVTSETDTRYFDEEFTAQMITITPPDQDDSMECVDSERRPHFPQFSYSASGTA
Protocol: (§1) Determining Live Cell AKT1 E17K, AKT1 WT, and AKT2 Target Engagement by NanoBRET Competitive Probe Displacement.
(§2) Live cell target engagement assays were performed as described (Vasta, J. D. et al. Cell Chem Biol 2018, 25(11), 206-214). Briefly, HEK293 cells were transfected with plasmids encoding kinase-NanoLuciferase fusion proteins overnight. Cells were then treated with serial dilutions of compound and an ˜EC50 concentration of fluorescently-tagged ATP-competitive tracer (Promega). After incubation for 2 h at 37° C., luciferase substrate and extracellular luciferase inhibitor were added to all wells, and luminescent intensity at 460 nm and 600 nm were measured on a multimode plate-reader. The ratio of E600/E460 was calculated to give the tracer engagement signal (BRET). IC50 values were calculated by fitting BRET values to a log(inhibitor) vs. response Hill equation.

[1] = test system: LAPC4 prostate cancer cells; experiment: Antiproliferative effects in LAPC4 cells (CellTiter Glo); conditions: LAPC4 cells (AKT1 E17K allele), read-out: LAPC4 proliferation IC50
Protocol: Antiproliferative Effects in LAPC4 Cells.
LAPC4 prostate cancer cells (Klein, K. A. et al. Nat Med 1997, 3, 402-408), which express the AKT1 E17K allele, were grown in IMDM media (Hyclone) supplemented with 12% FBS+1% P/S. To assess compound effects on growth, 1,000 cells/well were seeded in 384 well assay plates, incubated with compound dilutions dissolved in DMSO. After 72 h, intracellular ATP content was assessed with CellTiter Glo reagent (Promega) according to the manufacturer's instructions. IC50 values were calculated by fitting luminescence values to a log(inhibitor) vs. response Hill equation.

AKT1 E17K = target: T2, AKT1 E17K (Homo sapiens, UniProt P31749, E17K); experiment: Live cell AKT1 E17K target engagement by NanoBRET competitive probe displacement; conditions: HEK293 cells transfected with kinase-NanoLuciferase fusion, 2 h at 37° C.
T2 construct: expressed in transfected cells; host or cells: HEK293
T2 sequence (P31749 whole entry E17K, the tested form may be a part): as the sequence (P31749 whole entry, the tested form may be a part) above, with E17K counted along it
Protocol: as §1, §2

Row | SMILES | IC50 (AKT1 WT) [nM] | IC50 ([1]; 72 h) [nM] | IC50 (AKT1 E17K) [nM] | IC50 ([1]; Homo sapiens, LAPC4, 72 h) [nM]
1 | C=CC(=O)N1CCN(N(C)C2CCc3cc(-n4c(-c5cccnc5N)nc5ccc(-n6cccn6)nc54)ccc32)CC1 (single isomer, unassigned) [Example 179, 1-(4-{[(1*)-5-[2-(2-aminopyridin-3-yl)-5-(pyrazol-1-yl)imidazo[4,5-b]pyridin-3-yl]-2,3-dihydro-1H-inden-1-yl](methyl)amino}piperazin-1-yl)prop-2-en-1-one] | 2890 | 3520 | 203 | –
2 | C=CC(=O)N1C[C@H]2CCC[C@@H](C1)C2N[C@H]1CCc2cc(-n3c(-c4cccnc4N)nc4ccc(-n5cccn5)nc43)ccc21 (single isomer, unassigned) [Example 188, 1-((1R,5S,9*)-9-(((S)-5-(2-(2-aminopyridin-3-yl)-5-(1H-pyrazol-1-yl)-3H-imidazo[4,5-b]pyridin-3-yl)-2,3-dihydro-1H-inden-1-yl)amino)-3-azabicyclo[3.3.1]nonan-3-yl)prop-2-en-1-one] | 35 | 56.3 | 5.65 | –
3 | C=CC(=O)NC1CCN(C2CCc3cc(-n4c(-c5cccnc5N)nc5ccc(-n6cccn6)nc54)ccc32)CC1 (single isomer, unassigned) [Example 193, N-{1-[(1*)-5-[2-(2-aminopyridin-3-yl)-5-(pyrazol-1-yl)imidazo[4,5-b]pyridin-3-yl]-2,3-dihydro-1H-inden-1-yl]piperidin-4-yl}prop-2-enamide] | 71.5 | – | 10.2 | 58.4
4 | C=CC(=O)N1CCC(N[C@H]2CCc3cc(-n4c(-c5cccnc5N)nc5ccc(-n6cccn6)nc54)ccc32)C[C@@H]1C(F)F (single isomer, unassigned) [Example 212, 1-((2R,4*)-4-(((S)-5-(2-(2-aminopyridin-3-yl)-5-(1H-pyrazol-1-yl)-3H-imidazo[4,5-b]pyridin-3-yl)-2,3-dihydro-1H-inden-1-yl)amino)-2-(difluoromethyl)piperidin-1-yl)prop-2-en-1-one] | 36.1 | 36.6 | 6.9 | –
5 | C=CC(=O)N1CCC(N[C@H]2CCc3cc(-n4c(-c5cccnc5N)nc5ccc(-n6cccn6)nc54)ccc32)C[C@@H]1C(F)F (single isomer, unassigned) [Example 213, 1-((2R,4*)-4-(((S)-5-(2-(2-aminopyridin-3-yl)-5-(1H-pyrazol-1-yl)-3H-imidazo[4,5-b]pyridin-3-yl)-2,3-dihydro-1H-inden-1-yl)amino)-2-(difluoromethyl)piperidin-1-yl)prop-2-en-1-one] | 13.8 | 9.69 | 4.87 | –
6 | C=CC(=O)N1CCC(N[C@H]2CCc3cc(-n4c(-c5cccnc5N)nc5ccc(-n6cccn6)nc54)ccc32)C[C@H]1C(F)F (single isomer, unassigned) [Example 214, 1-((2S,4*)-4-(((S)-5-(2-(2-aminopyridin-3-yl)-5-(1H-pyrazol-1-yl)-3H-imidazo[4,5-b]pyridin-3-yl)-2,3-dihydro-1H-inden-1-yl)amino)-2-(difluoromethyl)piperidin-1-yl)prop-2-en-1-one] | 36.5 | – | 4.72 | 26.7
7 | C=CC(=O)N1CCN(CC2CCc3cc(-n4c(-c5cccnc5N)nc5ccc(-n6cccn6)nc54)ccc32)C[C@H]1C (single isomer, unassigned) [Example 292, 1-((R)-4-(((*)-5-(2-(2-aminopyridin-3-yl)-5-(1H-pyrazol-1-yl)-3H-imidazo[4,5-b]pyridin-3-yl)-2,3-dihydro-1H-inden-1-yl)methyl)-2-methylpiperazin-1-yl)prop-2-en-1-one] | 44.9 | – | 6.85 | 134
8 | C=CC(=O)N1CCC(N[C@@H]2c3ccc(-n4c(-c5ccccc5F)nc5ccc(-n6cccn6)nc54)cc3CC2F)CC1 (single isomer, unassigned) [Example 299, 1-(4-(((1R,2*)-2-fluoro-5-(2-(2-fluorophenyl)-5-(1H-pyrazol-1-yl)-3H-imidazo[4,5-b]pyridin-3-yl)-2,3-dihydro-1H-inden-1-yl)amino)piperidin-1-yl)prop-2-en-1-one] | 1180 | – | 9.32 | 603
9 | C=CC(=O)N1CCC(N[C@@H]2c3ccc(-n4c(-c5cccnc5N)nc5ccc(-n6cccn6)nc54)cc3CC2F)CC1C(F)F (single isomer, unassigned) [Example 301, 1-((2*,4*)-4-(((1R,2*)-5-(2-(2-aminopyridin-3-yl)-5-(1H-pyrazol-1-yl)-3H-imidazo[4,5-b]pyridin-3-yl)-2-fluoro-2,3-dihydro-1H-inden-1-yl)amino)-2-(difluoromethyl)piperidin-1-yl)prop-2-en-1-one] | 105 | 172 | 8.86 | –
10 | C=CC(=O)N1CCC(N[C@@H]2c3ccc(-n4c(-c5cccnc5N)nc5ccc(-n6cccn6)nc54)cc3CC2F)CC1C(F)F (single isomer, unassigned) [Example 303, 1-((2*,4*)-4-(((1R,2*)-5-(2-(2-aminopyridin-3-yl)-5-(1H-pyrazol-1-yl)-3H-imidazo[4,5-b]pyridin-3-yl)-2-fluoro-2,3-dihydro-1H-inden-1-yl)amino)-2-(difluoromethyl)piperidin-1-yl)prop-2-en-1-one] | 22.1 | 15.1 | 10.9 | –
11 | C=CC(=O)N1CCC(NC2c3ccc(-n4c(-c5cccnc5N)nc5ccc(-n6ccc(C7CC7)n6)nc54)cc3CC2F)CC1C(F)F (single isomer, unassigned) [Example 333, 1-((2*,4*)-4-(((1*,2*)-5-(2-(2-aminopyridin-3-yl)-5-(3-cyclopropyl-H-pyrazol-1-yl)-3H-imidazo[4,5-b]pyridin-3-yl)-2-fluoro-2,3-dihydro-1H-inden-1-yl)amino)-2-(difluoromethyl)piperidin-1-yl)prop-2-en-1-one] | 28.5 | – | 4.33 | –
12 | C=CC(=O)N1CCC(N[C@H]2CCc3cc(-n4c(-c5cccnc5N)nc5ccc(-n6cccn6)nc54)ccc32)CC1CC#N (single isomer, unassigned) [Example 338, 2-((2*,4*)-1-acryloyl-4-(((S)-5-(2-(2-aminopyridin-3-yl)-5-(1H-pyrazol-1-yl)-3H-imidazo[4,5-b]pyridin-3-yl)-2,3-dihydro-1H-inden-1-yl)amino)piperidin-2-yl)acetonitrile] | 108 | – | 12.3 | –
13 | C=CC(=O)N1C[C@@H]2[C@H](C1)[C@H]2NC1CCc2cc(-n3c(-c4cccnc4N)nc4ccc(-n5cccn5)nc43)ccc21 (single isomer, unassigned) [Example 346, 1-((1R,5S,6s)-6-(((*)-5-(2-(2-aminopyridin-3-yl)-5-(1H-pyrazol-1-yl)-3H-imidazo[4,5-b]pyridin-3-yl)-2,3-dihydro-1H-inden-1-yl)amino)-3-azabicyclo[3.1.0]hexan-3-yl)prop-2-en-1-one] | 2770 | – | 444 | –
14 | C=CC(=O)N1C[C@@H]2[C@H](C1)[C@H]2NC1CCc2cc(-n3c(-c4cccnc4N)nc4ccc(-n5cccn5)nc43)ccc21 (single isomer, unassigned) [Example 347, 1-((1R,5S,6s)-6-(((*)-5-(2-(2-aminopyridin-3-yl)-5-(1H-pyrazol-1-yl)-3H-imidazo[4,5-b]pyridin-3-yl)-2,3-dihydro-1H-inden-1-yl)amino)-3-azabicyclo[3.1.0]hexan-3-yl)prop-2-en-1-one] | 2210 | – | 234 | –
15 | C=CC(=O)N1CCC(NC2CCc3cc(-n4c(-c5cccnc5N)nc5ccc(C(F)F)nc54)ccc32)CC1 (stereo in doubt) [Example 196, 1-(4-{[(1R)-5-[2-(2-aminopyridin-3-yl)-5-(difluoromethyl)imidazo[4,5-b]pyridin-3-yl]-?3-dihydro-1H-inden-1-yl]amino}piperidin-1-yl)prop-2-en-1-one] | 1990 | – | 96.6 | 1210
16 | C=CC(=O)N1CCC(N[C@H]2CCc3cc(-n4c(-c5cccnc5N)nc5ccc(N6CCCC6)nc54)ccc32)CC1 [Example 170, 1-(4-{[(1S)-5-[2-(2-aminopyridin-3-yl)-5-(pyrrolidin-1-yl)imidazo[4,5-b]pyridin-3-yl]-2,3-dihydro-1H-inden-1-yl]amino}piperidin-1-yl)prop-2-en-1-one] | 114 | – | 12.5 | 160
17 | C=CC(=O)N1CCC(N[C@H]2CC(F)(F)c3cc(-n4c(-c5cccnc5N)nc5ccc(-n6cccn6)nc54)ccc32)CC1 [Example 305, (S)-1-(4-((5-(2-(2-aminopyridin-3-yl)-5-(1H-pyrazol-1-yl)-3H-imidazo[4,5-b]pyridin-3-yl)-3,3-difluoro-2,3-dihydro-1H-inden-1-yl)amino)piperidin-1-yl)prop-2-en-1-one] | – | – | 63.4 | 2740
